Laboratory results: BindingDB's records for doi:10.1016/j.bmc.2012.05.002 (Seoul National University, 2012)

Target: T1, Sortase family protein (Staphylococcus aureus, UniProt Q9S446)
T1 sequence (Q9S446 whole entry): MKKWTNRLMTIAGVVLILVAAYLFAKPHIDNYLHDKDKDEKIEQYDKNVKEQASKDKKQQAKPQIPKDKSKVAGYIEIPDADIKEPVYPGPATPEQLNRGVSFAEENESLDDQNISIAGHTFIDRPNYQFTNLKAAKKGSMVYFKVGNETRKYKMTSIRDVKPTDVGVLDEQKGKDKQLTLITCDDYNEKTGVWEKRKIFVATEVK
Assay: Inhibition of Staphylococcus aureus ATCC 6538p recombinant SrtA

With O=C(O)c1cc[c]([Hg][OH])cc1 the IC50 was 112 µM.
